Test results: paper PMC11079024, “Identification of a family of species-selective complex I inhibitors as potential anthelmintics” (Nature Communications, 2024)
Like-named read-outs stand apart in the source and are kept apart here.

Experiments:
[1] = target: C. elegans (N2) complex I (NADH:ubiquinone oxidoreductase) (Caenorhabditis elegans, UniProt P24887+Q93873+Q94360); experiment: biochemical; format: biochemical; conditions: for activity at 0.0001 µM / activity at 0.0005 µM / activity at 0.001 µM / activity at 0.0025 µM / activity at 0.005 µM / activity at 0.013 µM / activity at 0.025 µM / activity at 0.063 µM / activity at 0.125 µM / activity at 0.313 µM / activity at 0.625 µM / activity at 1.5 µM / activity at 3 µM / activity at 15 µM / activity at 37.5 µM / activity at 75 µM: read-out: C. elegans mitochondrial complex I activity; for Log IC50 C. elegans complex I: log10 of IC50 in µM, C. elegans mitochondria
Outline: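 Activity expressed as percent of solvent control. Complex I rate came from DCIP reduction at 600 nm (initial linear slope, 15 min) with NADH and decylubiquinone as substrates, plus antimycin A and KCN, in pH 7.5 KPi/BSA buffer. Isolated, thrice freeze-thawed mitochondria used at 0.2 mg/mL.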

[2] = target: B. taurus (heart) complex I (Bos taurus, UniProt P03887+P17694+P42026); experiment: biochemical; format: biochemical; conditions: for IC50: B. taurus heart mitochondria, estimated from fitted dose-response curves, read-out: B. taurus Complex I IC50; for activity at 0.0001 µM / activity at 0.0005 µM / activity at 0.001 µM / activity at 0.0025 µM / activity at 0.005 µM / activity at 0.013 µM / activity at 0.025 µM / activity at 0.063 µM / activity at 0.125 µM / activity at 0.313 µM / activity at 0.625 µM / activity at 1.5 µM / activity at 3 µM / activity at 15 µM / activity at 37.5 µM / activity at 75 µM: read-out: B. taurus mitochondrial complex I activity; for Log IC50 B. taurus complex I: log10 of IC50 in µM, B. taurus mitochondria
Outline: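 Complex I activity followed as DCIP reduction (600 nm, 30 s reads, 15 min) with 80 μM NADH and 60 μM decylubiquinone in 25 mM KPi pH 7.5 containing 2 μM antimycin A and 2 mM KCN. Freeze-thawed mouse or bovine heart mitochondria at 0.2 mg/mL; initial-rate percent of solvent control, single-point 100 μM or dose-response.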

[3] = in vitro complex I dose response on C. elegans mitochondria, average of at least two biological replicates, fit in R (DRC), read-out: IC50 C. elegans complex I
[4] = wild-type C. elegans mitochondria, estimated from fitted dose-response curves, read-out: C. elegans Complex I IC50
[5] = wild-type (N2) mitochondria, read-out: C. elegans Complex I IC50

Sequence of B. taurus (heart) complex I (P03887 whole entry): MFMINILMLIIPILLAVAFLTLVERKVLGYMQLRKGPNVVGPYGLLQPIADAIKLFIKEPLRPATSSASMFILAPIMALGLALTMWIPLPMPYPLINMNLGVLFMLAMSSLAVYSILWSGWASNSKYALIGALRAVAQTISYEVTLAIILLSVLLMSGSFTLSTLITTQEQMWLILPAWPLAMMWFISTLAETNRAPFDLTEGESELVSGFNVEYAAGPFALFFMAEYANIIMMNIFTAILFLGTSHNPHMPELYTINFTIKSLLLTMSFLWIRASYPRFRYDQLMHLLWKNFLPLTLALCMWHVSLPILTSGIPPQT
Sequence of B. taurus (heart) complex I (P17694 34-463): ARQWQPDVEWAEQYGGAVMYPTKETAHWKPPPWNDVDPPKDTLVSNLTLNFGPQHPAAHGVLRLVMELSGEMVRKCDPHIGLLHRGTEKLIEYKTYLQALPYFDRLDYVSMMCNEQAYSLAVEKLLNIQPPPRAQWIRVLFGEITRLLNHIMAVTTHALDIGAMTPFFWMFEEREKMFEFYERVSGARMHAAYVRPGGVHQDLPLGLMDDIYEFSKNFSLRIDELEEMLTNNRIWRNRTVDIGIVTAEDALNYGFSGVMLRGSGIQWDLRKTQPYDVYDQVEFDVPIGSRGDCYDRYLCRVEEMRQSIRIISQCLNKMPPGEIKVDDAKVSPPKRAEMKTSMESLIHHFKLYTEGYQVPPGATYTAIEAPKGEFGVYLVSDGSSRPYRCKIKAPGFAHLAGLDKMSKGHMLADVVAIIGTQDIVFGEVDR
Sequence of B. taurus (heart) complex I (P42026 38-216): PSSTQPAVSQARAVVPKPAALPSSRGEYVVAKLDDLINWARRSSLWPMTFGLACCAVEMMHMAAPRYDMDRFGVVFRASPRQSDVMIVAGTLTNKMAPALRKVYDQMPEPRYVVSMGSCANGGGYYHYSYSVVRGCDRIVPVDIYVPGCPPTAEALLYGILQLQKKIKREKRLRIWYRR
Sequence of C. elegans (N2) complex I (NADH:ubiquinone oxidoreductase) (Q94360 17-199): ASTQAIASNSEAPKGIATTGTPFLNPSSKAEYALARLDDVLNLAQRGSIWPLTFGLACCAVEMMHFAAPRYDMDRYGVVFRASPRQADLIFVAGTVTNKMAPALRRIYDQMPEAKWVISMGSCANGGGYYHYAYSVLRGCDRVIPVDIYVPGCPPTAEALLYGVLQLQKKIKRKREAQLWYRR
Sequence of C. elegans (N2) complex I (NADH:ubiquinone oxidoreductase) (P24887 whole entry): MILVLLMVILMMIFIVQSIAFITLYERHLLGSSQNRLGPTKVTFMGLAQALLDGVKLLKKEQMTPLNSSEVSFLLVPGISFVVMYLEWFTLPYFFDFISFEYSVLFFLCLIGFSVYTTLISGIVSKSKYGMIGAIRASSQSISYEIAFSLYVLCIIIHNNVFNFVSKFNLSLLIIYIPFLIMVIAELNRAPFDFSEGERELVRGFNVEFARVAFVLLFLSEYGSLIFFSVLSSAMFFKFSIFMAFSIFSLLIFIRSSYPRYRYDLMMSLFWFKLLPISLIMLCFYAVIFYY
Sequence of C. elegans (N2) complex I (NADH:ubiquinone oxidoreductase) (Q93873 31-482): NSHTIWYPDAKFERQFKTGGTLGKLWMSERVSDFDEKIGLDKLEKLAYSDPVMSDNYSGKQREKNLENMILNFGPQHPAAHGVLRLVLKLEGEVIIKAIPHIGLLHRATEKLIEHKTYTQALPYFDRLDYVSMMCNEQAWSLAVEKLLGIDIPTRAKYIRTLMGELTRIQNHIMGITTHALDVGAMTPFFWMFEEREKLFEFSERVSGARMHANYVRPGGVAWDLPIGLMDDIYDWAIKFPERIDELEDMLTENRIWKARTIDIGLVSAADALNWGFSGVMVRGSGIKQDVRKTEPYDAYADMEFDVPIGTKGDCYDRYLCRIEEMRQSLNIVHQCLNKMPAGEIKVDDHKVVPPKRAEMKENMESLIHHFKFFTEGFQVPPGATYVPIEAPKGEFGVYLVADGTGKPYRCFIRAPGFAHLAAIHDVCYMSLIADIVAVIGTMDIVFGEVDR

| SMILES | activity at 0.0001 µM [1] [%] | activity at 0.0005 µM [1] [%] | activity at 0.001 µM [1] [%] | activity at 0.0025 µM [1] [%] | activity at 0.005 µM [1] [%] | activity at 0.013 µM [1] [%] | activity at 0.025 µM [1] [%] | activity at 0.063 µM [1] [%] | activity at 0.125 µM [1] [%] | activity at 0.313 µM [1] [%] | activity at 0.625 µM [1] [%] | activity at 1.5 µM [1] [%] | activity at 3 µM [1] [%] | activity at 15 µM [1] [%] | activity at 37.5 µM [1] [%] | IC50 [1, 3] [nM] | Log IC50 C. elegans complex I [1] [µM] | IC50 [1, 4] [nM] | IC50 [2] [nM] | Log IC50 B. taurus complex I [2] [µM] | also measured |
| --- | --- | --- | --- | --- | --- | --- | --- | --- | --- | --- | --- | --- | --- | --- | --- | --- | --- | --- | --- | --- | --- |
| Cc1ccc(SCCCn2cnc3ccccc32)cc1 [Compound 7926035] | 90.2 | 95.5 | 88.3 | 100 | 101 | 96.9 | 95.3 | 85.5 | 96.1 | 69.9 | 33.2 | 33.2 | 8.58 | 3.26 | 1.04 | 540 | -0.27 | 540 | 3590 | 0.56 | activity at 75 µM [1]: 3.35%; activity at 0.0001 µM [2]: 101%; activity at 0.0005 µM [2]: 105%; activity at 0.001 µM [2]: 99.3%; activity at 0.0025 µM [2]: 106%; activity at 0.005 µM [2]: 102%; activity at 0.013 µM [2]: 101%; activity at 0.025 µM [2]: 100%; activity at 0.063 µM [2]: 98.8%; activity at 0.125 µM [2]: 97%; activity at 0.313 µM [2]: 98.3%; activity at 0.625 µM [2]: 78.8%; activity at 1.5 µM [2]: 78.8%; activity at 3 µM [2]: 41.2%; activity at 15 µM [2]: 10%; activity at 37.5 µM [2]: 2.81%; activity at 75 µM [2]: 1.94% |
| Nc1nc2ccccc2n1Cc1ccc(Cl)cc1 [Compound 5652765] | 86.1 | 92.1 | 93.5 | 93.8 | 90.5 | 90.4 | 78.8 | 76.6 | 72.5 | 39.7 | 49.3 | 25.2 | 11.5 | 0.44 | 0.7 | 470 | -0.33 | 470 | 2270 | 0.36 | activity at 75 µM [1]: 0.75%; IC50 [1, 5]: 470 nM; activity at 0.0001 µM [2]: 93.5%; activity at 0.0005 µM [2]: 96.1%; activity at 0.001 µM [2]: 91%; activity at 0.0025 µM [2]: 95.6%; activity at 0.005 µM [2]: 88.8%; activity at 0.013 µM [2]: 88.3%; activity at 0.025 µM [2]: 83.3%; activity at 0.063 µM [2]: 87.9%; activity at 0.125 µM [2]: 79.5%; activity at 0.313 µM [2]: 76.3%; activity at 0.625 µM [2]: 72.5%; activity at 1.5 µM [2]: 54.3%; activity at 3 µM [2]: 36.4%; activity at 15 µM [2]: 4.61%; activity at 37.5 µM [2]: 0.42%; activity at 75 µM [2]: 0.3% |
| Cc1ccc(Cn2c(C)nc3ccccc32)cc1 [Compound 5651984] | – | – | – | – | – | – | – | – | – | – | – | – | – | – | – | 180 | -0.74 | 180 | 990 | -0.00436 | IC50 [1, 5]: 180 nM |
